Measurements published in PMC3274524, “In Vitro Pharmacological Characterization of RXFP3 Allosterism: An Example of Probe Dependency” (PLoS ONE, 2012).

What was measured:
[1] = target: T1, serotonin 5-HT1A (Homo sapiens, UniProt P08908); assay: radioligand binding selectivity panel (CEREP/in house), single concentration
T1 construct: gene HTR1A
T1 sequence (P08908 1-422): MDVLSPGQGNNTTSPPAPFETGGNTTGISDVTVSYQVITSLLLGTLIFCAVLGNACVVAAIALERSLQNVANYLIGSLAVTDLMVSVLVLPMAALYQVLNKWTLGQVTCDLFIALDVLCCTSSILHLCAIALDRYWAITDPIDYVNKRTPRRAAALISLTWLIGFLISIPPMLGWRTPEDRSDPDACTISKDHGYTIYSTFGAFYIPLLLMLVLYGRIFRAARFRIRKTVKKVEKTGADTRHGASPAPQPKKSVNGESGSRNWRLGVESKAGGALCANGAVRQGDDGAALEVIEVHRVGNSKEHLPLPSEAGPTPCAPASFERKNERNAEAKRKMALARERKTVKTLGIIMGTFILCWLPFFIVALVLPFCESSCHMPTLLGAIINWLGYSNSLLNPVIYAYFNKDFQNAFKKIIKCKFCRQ

[2] = target: T2, norepinephrine transporter (Homo sapiens, UniProt P23975); assay: as above
T2 construct: gene SLC6A2
T2 sequence (P23975 whole entry): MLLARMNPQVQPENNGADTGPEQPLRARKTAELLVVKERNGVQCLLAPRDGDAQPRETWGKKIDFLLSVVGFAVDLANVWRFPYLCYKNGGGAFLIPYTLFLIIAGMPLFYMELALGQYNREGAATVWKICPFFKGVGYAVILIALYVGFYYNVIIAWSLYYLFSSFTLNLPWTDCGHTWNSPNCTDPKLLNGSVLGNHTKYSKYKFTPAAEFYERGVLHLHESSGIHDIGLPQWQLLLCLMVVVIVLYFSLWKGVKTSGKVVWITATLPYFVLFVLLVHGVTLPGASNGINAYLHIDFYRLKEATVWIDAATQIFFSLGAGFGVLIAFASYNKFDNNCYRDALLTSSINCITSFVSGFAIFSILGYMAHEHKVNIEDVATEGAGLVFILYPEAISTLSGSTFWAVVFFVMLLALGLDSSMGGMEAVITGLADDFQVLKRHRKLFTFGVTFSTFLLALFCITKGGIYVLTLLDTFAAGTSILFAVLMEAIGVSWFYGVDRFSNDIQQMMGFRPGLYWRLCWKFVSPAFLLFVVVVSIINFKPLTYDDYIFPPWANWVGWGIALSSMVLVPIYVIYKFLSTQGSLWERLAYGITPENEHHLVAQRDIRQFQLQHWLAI

[3] = target: T3, dopamine transporter (Homo sapiens, UniProt Q01959); assay: as above
T3 construct: gene SLC6A3
T3 sequence (Q01959 whole entry): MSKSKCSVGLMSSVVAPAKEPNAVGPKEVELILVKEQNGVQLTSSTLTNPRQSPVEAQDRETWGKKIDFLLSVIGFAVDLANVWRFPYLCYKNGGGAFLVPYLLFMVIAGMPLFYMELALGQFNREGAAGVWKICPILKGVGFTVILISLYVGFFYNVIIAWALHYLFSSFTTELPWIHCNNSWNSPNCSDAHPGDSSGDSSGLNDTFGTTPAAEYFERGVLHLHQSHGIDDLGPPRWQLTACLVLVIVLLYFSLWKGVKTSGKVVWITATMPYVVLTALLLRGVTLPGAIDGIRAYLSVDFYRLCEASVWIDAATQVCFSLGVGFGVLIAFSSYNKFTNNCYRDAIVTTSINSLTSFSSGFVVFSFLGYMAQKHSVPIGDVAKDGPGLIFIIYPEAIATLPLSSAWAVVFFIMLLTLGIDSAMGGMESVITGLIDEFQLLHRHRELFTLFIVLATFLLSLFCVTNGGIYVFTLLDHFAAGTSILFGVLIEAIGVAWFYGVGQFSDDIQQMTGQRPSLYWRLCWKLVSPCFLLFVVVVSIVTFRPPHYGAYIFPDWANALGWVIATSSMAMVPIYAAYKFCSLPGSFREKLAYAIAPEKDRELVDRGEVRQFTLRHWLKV

[4] = target: T4, RXFP3 (relaxin-3 receptor; GPCR135; SALPR) (Homo sapiens, UniProt Q9NSD7); assay: Ca2+ mobilization (FLIPR) agonist curve shift, allosteric ternary complex model; also increased […]R3/I5NH2 binding in membranes; format: cell-based
T4 construct: cloned human RXFP3 receptor, stably expressed in HEK-293 cells with GqI5; with Relaxin-3NH2 (amidated orthosteric agonist; also R3/I5NH2)
T4 sequence (Q9NSD7 1-469): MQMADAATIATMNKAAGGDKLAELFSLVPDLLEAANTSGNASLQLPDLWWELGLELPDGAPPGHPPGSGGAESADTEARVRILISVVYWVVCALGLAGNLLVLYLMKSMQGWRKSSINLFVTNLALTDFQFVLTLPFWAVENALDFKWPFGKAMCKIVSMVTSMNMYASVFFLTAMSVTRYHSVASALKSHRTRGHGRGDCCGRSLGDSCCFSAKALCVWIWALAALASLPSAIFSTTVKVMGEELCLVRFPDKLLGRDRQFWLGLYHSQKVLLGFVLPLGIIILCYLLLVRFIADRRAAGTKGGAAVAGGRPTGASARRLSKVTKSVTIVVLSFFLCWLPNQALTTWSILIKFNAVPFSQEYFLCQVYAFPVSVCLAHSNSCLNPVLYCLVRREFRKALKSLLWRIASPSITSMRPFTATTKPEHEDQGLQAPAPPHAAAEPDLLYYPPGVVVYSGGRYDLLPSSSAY

Compound: COc1ccc2[nH]cc(CCN(Cc3ccc(Cl)c(Cl)c3)C(=O)Nc3cc(C(F)(F)F)cc(C(F)(F)F)c3)c2c1 [135PAM1, 3-[3,5-Bis(trifluoromethyl)phenyl]-1-(3,4-dichlorobenzyl)-1-[2-(5-methoxy-1H-indol-3-yl)ethyl]urea]
- inhibition at 10 µM [1]: 74%
- inhibition at 10 µM [2]: 59%
- inhibition at 10 µM [3]: 83%
- Kb [4]: 355 nM
